Legend:
LMWPTP = target: T1, LMWPTP (Homo sapiens, UniProt P24666); assay: PTP inhibition assay (pNPP); type: biochemical; conditions: pNPP at Km, pH 7.0, 25° C.
T1 sequence (P24666 1-158): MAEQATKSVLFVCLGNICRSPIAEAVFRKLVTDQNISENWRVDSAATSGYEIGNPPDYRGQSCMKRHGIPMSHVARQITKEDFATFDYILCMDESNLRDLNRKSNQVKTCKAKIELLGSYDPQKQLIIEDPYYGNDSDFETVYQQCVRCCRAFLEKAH

Laforin = target: T2, Laforin (Homo sapiens, UniProt O95278); assay: PTP inhibition assay (pNPP); type: biochemical; conditions: for IC50: pNPP at Km, pH 7.0, 25° C., read-out: IC50 Laforin
T2 sequence (O95278 1-331): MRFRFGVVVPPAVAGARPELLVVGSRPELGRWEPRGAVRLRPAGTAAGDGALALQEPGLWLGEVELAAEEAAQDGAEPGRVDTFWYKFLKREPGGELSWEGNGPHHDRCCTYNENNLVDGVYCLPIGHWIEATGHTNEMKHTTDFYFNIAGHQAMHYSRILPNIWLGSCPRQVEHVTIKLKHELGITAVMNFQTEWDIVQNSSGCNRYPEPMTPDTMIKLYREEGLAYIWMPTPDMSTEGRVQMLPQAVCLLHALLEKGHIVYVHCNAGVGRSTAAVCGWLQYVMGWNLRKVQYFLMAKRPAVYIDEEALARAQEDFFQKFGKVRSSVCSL

YopH = YopH (Yersinia enterocolitica, UniProt P15273); assay: biochemical
Chain of YopH (P15273 whole entry, looked up): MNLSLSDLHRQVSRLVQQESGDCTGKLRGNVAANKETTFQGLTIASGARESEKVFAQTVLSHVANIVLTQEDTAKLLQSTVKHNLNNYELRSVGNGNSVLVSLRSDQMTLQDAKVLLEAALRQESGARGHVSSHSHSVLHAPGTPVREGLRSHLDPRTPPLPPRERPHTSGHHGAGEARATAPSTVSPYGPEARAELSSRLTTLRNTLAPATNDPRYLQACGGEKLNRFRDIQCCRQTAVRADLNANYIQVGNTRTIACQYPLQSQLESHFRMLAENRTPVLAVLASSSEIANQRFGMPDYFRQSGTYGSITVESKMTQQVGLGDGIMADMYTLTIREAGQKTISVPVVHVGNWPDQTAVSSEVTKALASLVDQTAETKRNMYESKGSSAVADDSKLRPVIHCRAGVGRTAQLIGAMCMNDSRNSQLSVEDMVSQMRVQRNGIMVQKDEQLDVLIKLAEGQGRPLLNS

TbPTP1 = TbPTP1 (Trypanosoma brucei brucei, UniProt Q38AT7); assay: PTP inhibition assay (pNPP); type: biochemical; conditions: pNPP at Km, pH 7.0, 25° C.; read-out: IC50 TbPTP1
Chain of TbPTP1 (Q38AT7 entry or part of it): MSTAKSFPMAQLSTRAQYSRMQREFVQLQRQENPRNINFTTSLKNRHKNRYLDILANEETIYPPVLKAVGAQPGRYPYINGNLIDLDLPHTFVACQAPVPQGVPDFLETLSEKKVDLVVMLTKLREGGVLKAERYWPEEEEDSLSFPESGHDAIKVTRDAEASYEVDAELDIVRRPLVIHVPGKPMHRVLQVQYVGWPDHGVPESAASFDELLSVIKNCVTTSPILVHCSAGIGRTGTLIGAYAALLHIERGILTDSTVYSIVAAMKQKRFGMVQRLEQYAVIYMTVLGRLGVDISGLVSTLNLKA

TcPTP = target: T3, TcPTP (Homo sapiens, UniProt P17706); assay: PTP inhibition assay (pNPP); type: biochemical; conditions: pNPP at Km, pH 7.0, 25° C.; read-out: IC50 TcPTP
T3 sequence (P17706 1-415): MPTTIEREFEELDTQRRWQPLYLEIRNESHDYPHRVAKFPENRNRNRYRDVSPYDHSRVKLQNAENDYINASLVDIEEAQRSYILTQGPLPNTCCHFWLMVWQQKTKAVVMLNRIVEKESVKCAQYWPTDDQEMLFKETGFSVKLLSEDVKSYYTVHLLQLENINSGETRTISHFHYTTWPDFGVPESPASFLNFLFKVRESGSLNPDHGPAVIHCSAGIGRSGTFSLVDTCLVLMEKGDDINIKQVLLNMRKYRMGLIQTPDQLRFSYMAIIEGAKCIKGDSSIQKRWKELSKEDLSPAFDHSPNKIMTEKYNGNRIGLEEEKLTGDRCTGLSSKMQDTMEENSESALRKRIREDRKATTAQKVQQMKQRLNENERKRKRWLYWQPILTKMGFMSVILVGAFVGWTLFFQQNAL

FAP1 = FAP1 (Homo sapiens, UniProt Q12923); assay: PTP inhibition assay (pNPP); type: biochemical; conditions: pNPP at Km, pH 7.0, 25° C.; read-out: IC50 FAP1
Chain of FAP1 (Q12923 whole entry): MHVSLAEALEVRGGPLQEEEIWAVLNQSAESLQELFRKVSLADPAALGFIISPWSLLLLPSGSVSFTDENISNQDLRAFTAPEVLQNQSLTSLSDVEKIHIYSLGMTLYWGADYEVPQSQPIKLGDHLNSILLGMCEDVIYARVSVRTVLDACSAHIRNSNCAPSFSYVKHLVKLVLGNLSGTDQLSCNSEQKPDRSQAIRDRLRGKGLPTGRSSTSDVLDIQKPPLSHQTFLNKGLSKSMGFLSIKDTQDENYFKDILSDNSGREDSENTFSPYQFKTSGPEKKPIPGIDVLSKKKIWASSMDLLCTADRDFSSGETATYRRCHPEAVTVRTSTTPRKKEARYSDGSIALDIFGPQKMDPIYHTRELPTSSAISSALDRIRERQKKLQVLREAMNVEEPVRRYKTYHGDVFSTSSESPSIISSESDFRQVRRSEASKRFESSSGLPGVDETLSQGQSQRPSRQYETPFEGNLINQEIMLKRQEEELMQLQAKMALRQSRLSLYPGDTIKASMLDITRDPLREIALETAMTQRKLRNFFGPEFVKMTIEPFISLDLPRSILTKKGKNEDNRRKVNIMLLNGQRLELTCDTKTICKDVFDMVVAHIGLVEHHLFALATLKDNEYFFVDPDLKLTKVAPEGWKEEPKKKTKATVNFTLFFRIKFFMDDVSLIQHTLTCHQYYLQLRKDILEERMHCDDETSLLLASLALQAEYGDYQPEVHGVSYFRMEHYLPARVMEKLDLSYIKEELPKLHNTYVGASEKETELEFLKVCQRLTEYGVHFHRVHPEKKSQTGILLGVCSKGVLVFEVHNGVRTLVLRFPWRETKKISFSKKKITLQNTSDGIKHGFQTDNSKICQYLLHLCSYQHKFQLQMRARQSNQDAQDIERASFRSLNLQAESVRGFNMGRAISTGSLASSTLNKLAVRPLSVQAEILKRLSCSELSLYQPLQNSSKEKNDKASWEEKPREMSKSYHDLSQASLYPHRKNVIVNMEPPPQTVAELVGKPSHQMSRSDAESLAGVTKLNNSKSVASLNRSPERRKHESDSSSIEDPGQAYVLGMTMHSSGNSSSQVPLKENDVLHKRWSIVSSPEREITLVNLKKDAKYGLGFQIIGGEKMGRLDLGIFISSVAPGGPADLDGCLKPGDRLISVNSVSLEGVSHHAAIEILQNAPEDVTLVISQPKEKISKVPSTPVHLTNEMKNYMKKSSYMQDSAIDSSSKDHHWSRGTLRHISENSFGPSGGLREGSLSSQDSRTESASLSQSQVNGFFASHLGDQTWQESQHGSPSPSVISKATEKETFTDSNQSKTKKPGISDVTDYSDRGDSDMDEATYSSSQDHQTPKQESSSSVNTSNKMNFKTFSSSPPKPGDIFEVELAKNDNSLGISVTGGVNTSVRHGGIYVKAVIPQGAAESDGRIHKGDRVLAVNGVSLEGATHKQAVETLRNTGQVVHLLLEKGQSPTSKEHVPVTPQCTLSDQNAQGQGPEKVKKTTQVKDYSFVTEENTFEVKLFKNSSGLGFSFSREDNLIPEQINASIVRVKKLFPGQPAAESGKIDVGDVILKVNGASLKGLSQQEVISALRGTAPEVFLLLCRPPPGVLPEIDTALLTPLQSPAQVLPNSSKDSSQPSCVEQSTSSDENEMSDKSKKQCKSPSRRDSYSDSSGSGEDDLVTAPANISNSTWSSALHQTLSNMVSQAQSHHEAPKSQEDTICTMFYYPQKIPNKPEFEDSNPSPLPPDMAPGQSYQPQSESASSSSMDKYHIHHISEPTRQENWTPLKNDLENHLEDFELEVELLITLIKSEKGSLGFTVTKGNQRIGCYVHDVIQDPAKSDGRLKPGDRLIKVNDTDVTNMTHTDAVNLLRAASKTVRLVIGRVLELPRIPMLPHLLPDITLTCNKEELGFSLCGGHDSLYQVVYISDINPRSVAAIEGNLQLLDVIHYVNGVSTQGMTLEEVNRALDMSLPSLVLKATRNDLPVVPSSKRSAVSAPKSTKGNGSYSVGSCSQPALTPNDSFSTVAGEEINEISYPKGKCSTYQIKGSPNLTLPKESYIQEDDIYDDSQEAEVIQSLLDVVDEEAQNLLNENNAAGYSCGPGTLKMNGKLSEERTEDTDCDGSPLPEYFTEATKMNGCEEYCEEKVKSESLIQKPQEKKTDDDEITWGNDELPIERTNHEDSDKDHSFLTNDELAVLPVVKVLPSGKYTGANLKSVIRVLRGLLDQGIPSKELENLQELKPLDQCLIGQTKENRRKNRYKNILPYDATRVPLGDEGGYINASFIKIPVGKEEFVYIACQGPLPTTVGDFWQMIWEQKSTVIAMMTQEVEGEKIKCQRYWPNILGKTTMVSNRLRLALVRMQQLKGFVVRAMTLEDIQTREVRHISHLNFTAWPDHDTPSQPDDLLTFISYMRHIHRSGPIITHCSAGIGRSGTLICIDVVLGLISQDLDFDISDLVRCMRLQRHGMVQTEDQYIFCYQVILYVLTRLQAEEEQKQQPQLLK

LAR = LAR (Homo sapiens, UniProt P10586); assay: PTP inhibition assay (pNPP); type: biochemical
PTPα = PTPα (Homo sapiens, UniProt P18433); assay: PTP inhibition assay (pNPP); type: biochemical
Chain of PTPα (P18433 20-802): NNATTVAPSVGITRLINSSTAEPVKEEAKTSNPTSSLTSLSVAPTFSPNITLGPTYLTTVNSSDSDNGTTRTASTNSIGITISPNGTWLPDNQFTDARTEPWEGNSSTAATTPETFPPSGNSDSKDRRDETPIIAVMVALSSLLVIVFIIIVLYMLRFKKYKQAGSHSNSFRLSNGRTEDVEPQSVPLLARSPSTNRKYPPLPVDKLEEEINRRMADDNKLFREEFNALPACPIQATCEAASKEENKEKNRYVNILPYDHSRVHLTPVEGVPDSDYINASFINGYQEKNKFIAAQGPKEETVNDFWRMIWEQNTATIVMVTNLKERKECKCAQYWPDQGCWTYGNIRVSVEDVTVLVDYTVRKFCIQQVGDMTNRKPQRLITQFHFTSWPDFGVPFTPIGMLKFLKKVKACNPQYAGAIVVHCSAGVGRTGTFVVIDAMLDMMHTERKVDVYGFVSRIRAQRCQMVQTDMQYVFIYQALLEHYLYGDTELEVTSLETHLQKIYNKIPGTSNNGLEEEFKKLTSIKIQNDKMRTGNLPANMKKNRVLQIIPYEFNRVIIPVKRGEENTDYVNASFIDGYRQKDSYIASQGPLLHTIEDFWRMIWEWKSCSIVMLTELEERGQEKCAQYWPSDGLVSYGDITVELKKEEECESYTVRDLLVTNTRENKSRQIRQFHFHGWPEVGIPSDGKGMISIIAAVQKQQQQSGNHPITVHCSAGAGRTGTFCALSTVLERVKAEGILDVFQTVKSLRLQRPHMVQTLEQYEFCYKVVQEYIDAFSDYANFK

PTPβ = PTPβ (Homo sapiens, UniProt P23467); assay: PTP inhibition assay (pNPP); type: biochemical
PTPε = PTPε (Homo sapiens, UniProt P23469); assay: PTP inhibition assay (pNPP); type: biochemical
Chain of PTPε (P23469 20-700): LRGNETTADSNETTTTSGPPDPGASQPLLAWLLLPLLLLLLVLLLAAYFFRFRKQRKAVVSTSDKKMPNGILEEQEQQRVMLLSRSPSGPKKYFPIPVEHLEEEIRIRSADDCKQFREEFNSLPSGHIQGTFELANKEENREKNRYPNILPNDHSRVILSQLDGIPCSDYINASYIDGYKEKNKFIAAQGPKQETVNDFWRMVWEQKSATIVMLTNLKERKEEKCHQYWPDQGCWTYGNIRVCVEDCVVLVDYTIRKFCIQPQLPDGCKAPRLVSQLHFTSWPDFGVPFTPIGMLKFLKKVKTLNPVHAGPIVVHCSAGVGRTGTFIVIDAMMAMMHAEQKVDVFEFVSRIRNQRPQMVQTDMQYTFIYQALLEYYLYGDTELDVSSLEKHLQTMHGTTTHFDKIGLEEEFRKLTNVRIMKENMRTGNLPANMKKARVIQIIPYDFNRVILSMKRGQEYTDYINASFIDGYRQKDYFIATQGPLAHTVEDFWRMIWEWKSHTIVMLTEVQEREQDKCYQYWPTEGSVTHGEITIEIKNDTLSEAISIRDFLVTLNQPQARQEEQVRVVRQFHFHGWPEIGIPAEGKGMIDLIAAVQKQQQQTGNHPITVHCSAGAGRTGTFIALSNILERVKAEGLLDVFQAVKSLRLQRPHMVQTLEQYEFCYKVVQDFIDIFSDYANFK

CDC14A = target: T4, CDC14A (Homo sapiens, UniProt Q9UNH5); assay: PTP inhibition assay (pNPP); type: biochemical
T4 sequence (Q9UNH5 1-594): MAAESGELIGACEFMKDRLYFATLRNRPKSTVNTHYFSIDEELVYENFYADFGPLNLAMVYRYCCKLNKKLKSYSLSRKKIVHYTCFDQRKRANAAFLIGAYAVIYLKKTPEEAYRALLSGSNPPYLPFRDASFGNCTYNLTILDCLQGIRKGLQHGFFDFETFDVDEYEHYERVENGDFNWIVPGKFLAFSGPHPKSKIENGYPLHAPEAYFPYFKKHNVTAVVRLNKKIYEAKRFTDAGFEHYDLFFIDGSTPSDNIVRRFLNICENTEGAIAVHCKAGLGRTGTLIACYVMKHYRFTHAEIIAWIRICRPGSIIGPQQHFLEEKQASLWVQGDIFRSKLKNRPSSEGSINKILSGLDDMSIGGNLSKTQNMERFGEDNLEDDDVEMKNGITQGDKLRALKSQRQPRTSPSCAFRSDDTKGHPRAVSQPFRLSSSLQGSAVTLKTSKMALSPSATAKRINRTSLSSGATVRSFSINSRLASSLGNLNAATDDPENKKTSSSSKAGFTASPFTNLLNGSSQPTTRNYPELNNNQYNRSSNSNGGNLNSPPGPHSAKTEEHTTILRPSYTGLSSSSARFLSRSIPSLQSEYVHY

PP5 = target: T5, PP5 (Homo sapiens, UniProt P53041); assay: Phosphatase inhibition assay (pNPP)
T5 sequence (P53041 1-499): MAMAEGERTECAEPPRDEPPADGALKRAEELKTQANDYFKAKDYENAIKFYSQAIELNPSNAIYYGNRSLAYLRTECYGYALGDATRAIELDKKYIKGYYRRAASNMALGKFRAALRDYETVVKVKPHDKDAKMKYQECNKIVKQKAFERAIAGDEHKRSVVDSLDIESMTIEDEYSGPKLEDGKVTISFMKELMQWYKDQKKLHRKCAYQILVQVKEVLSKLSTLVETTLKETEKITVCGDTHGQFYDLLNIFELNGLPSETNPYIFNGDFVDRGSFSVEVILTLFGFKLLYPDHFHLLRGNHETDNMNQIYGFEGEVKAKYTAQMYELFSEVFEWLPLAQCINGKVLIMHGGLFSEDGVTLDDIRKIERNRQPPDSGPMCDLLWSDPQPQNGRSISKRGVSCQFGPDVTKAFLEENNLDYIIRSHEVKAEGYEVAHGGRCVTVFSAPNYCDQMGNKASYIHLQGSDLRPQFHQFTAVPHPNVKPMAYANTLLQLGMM

| Compound | IC50 (LMWPTP) [µM] | IC50 (Laforin) [µM] | IC50 (YopH) [µM] | IC50 (TbPTP1) [µM] | IC50 (TcPTP) [µM] | IC50 (FAP1) [µM] | IC50 (LAR) [µM] | IC50 (PTPα) [µM] | IC50 (PTPβ) [µM] | IC50 (PTPε) [µM] | IC50 (CDC14A) [µM] | IC50 (PP5) [µM] | Inhibition of Laforin at 100 μM (Laforin; 100 μM) |
| --- | --- | --- | --- | --- | --- | --- | --- | --- | --- | --- | --- | --- | --- |
| O=C(C(c1ccccc1)S(=O)(=O)O)N1CCCC2CCCCC21 (stereo not shown) [Compound L319N53] | > 200 | > 200 | > 200 | > 200 | > 200 | 76 | > 200 | > 200 | > 200 | > 200 | > 200 | > 200 |  |
| O=C(CS(=O)(=O)O)Nc1nc2ccc([N+](=O)[O-])cc2s1 [Compound L335N15-07] | 0.3 | > 100 | > 100 | > 100 | > 100 | > 100 | > 100 | > 100 | > 100 | > 100 | > 100 | > 100 | no detectable inhibition |
| O=C(CS(=O)(=O)O)Nc1nc2ccccc2s1 [Compound L335N15] | 2.1 | > 100 | > 100 | > 100 | > 100 | > 100 | > 100 | > 100 | > 100 | > 100 | > 100 | > 100 |  |

Reference: patent publication US10494332B2, “Protein tyrosine phosphatases or SHP2 inhibitors and uses thereof” (Indiana University Research and Technology Corporation, priority 2015, dated 2019)
